Source: patent US12490743B2, “Method for treatment of crops” (Wobelea PTY LTD, priority 2019, dated 2025)
Several values for one entry are separate records, joined by “and”; a condition that tells them apart may be missing. Equal entries are not always repeated.

Experiments:
[1] = system: Erwinia carotovora; assay: Preventative activity: pathogen plugs laid on agar containing product; type: cell-based; settings: Example 5; unadjusted water pH; 0.8%; WOB as liquid formulation; 24 hrs
Description: (§1) The fungal and bacterial pathogens Erwinia carotovora (bacterial) and Botrytis cinerea (fungal) were cultured on to Nutrient Agar (NA) and potato dextrose agar (PDA), respectively and incubated at ambient temperature until sporulating or well grown.
(§2) Multiple plates of PDA were inoculated with B. cinerea and allowed to sporulate. Multiple plates of NA were inoculated with E. carotovora and allowed to grow into a thick lawn.
(§3) Plates of agar containing each product (Na metabisulphite, Na Benzoate, WOB NP1 of Example 3) and (Na sulphite, Na Benzoate, WOB PH1) at concentrations equivalent to 0.8% concentration were made up and poured into sterile disposal Petri dishes. Three replicates for each product and pH (4.0 and 7.0) were used.
(§4) Sterile agar discs covered with bacterial cells or fungal hyphae and spores were cut from respective plates of B. cinerea and E. carotovora. Three discs were each laid culture surface down onto the amended agar surface, incubated at ambient temperatures (14-25° C.) and observed for inhibition zones at 24 hours, 48 hours and 7 days.
(§5) Water was used unmodified and agars were made up of the 6 products using them at the pH resulting after dissolving to 0.8% concertation. Curative and preventative plates were prepared as described for Example 4 except that pHs were as dissolved (tank water not adjusted prior to dissolving/diluting product).
(§6) The curative and preventative experiments were repeated according to the method of Example 5 using the liquid WOB NP1 and WOB PH 1 formulations and the solid actives sodium metabisulphite, sodium benzoate and sodium sulphite.
(§7) The liquid WOB formulations were divided into 3 aliquots; one was used immediately—time zero; one stored at ambient temperate (15-27° C.) for one week and experiments repeated; one kept refrigerated (5° C.) for one week and experiments repeated.

[2] = system: Botrytis cinerea; assay: as above; type: cell-based; settings: Example 5; unadjusted water pH; 0.8%; WOB as liquid formulation; 24 hrs
Description: as §1, §2, §3, §4, §5, §6, §7

[3] = pH of products dissolved in tank water; type: physicochemical; settings: 0.8%; for pH after active added in unamended tank water: tank water pH 6.25
Description: The water used throughout the projects is rainwater held in the dark in a plastic tank with stable pH value of 6.25. Controls were set up by replacing actives with tank water only.
Products were dissolved in tank water before application to the agar plants. Tank water (pH 6.25) was adjusted to the respective pH levels prior to adding the actives to determine the change in pH caused by the actives.
Tank water was adjusted to pH 4.0, 5.5, and 7.0 before adding sodium benzoate, sodium metabisulphite and WOB NP1, each at 0.8%.
Tank water was adjusted to pH 7.0, 7.5 and 8.4 before adding sodium benzoate, sodium sulphite and WOB PH1, each at 0.8%.

[4] = system: Erwinia carotovora; assay: Curative activity: product-soaked discs laid on pathogen lawn on agar; type: cell-based; settings: 0.8%, 24 hrs
Description: as §1, §2
(§8) Plates of PDA and NA were inoculated with fungal spores and bacterial cells, respectively, and allowed to grow into a lawn covering the agar surfaces. Three replicates were used for each product and each pH. Following the results from the preliminary tests, pH 4.0 and 7.0 were selected for all further product pH tests.
(§9) When the lawns were well grown and sporulating in the case of the fungal pathogen, five discs soaked with 200 uL of each product (sodium metabisulphite, sodium benzoate, WOB NP1, sodium sulphite, and WOB PH1) at appropriate pH levels were laid onto the sporulating surface or cell lawn surface for the fungal pathogen and the bacterial pathogen, respectively.
(§10) The plates were incubated at ambient temperature (14-25° C.). Inhibition zones were measured at 24 hours, 48 hours and 7 days.
as §5, §6, §7

[5] = system: Botrytis cinerea; assay: as above; type: cell-based; settings: 0.8%, 24 hrs
Description: as §1, §2, §8, §9, §10, §5, §6, §7

[6] = tank water adjusted to pH 4.0 before product added
[7] = tank water adjusted to pH 5.5 before product added
[8] = tank water adjusted to pH 7.0 before product added
[9] = tank water adjusted to pH 7.5 before product added
[10] = tank water adjusted to pH 8.4 before product added
[11] = Example 5, unadjusted water pH, WOB as liquid formulation

SMILES | Preventative activity on the growth of E. carotovora [1] | Preventative activity on the growth of B. cinerea [2] | pH of water after product added [3, 6] | pH of water after product added [3, 7] | pH of water after product added [3, 8] | pH of water after product added [3, 9] | pH of water after product added [3, 10] | pH after active added in unamended tank water [3] | Curative activity on the growth of E. carotovora ([4]; Example 4, pH 7.0) | Curative activity on the growth of B. cinerea ([5]; Example 4, pH 4.0) | Curative activity on the growth of B. cinerea ([5]; Example 4, pH 7.0) | Curative activity on the growth of B. cinerea [5, 11] | Curative activity on the growth of E. carotovora ([4]; Example 4, pH 4.0) | Curative activity on the growth of E. carotovora [4, 11]
O=C([O-])c1ccccc1.[Na+] [Na Benzoate, sodium benzoate] | No obvious effect | No obvious effect | 6.15 | 6.34 | 6.60 and 6.74 | 6.80 | 6.85 | 4.78 | No effect | No obvious effect | No effect | No obvious effect | – | –
O=S([O-])S(=O)(=O)[O-].[Na+].[Na+] [Na metabisulphite, sodium metabisulphite] | No obvious effect | No obvious effect | 3.75 | 5.52 | 6.14 | – | – | 4.74 | – | No effect | – | No obvious effect | No effect | No obvious effect
O=S([O-])[O-].[Na+].[Na+] [Na sulphite, sodium sulphite] | – | – | – | – | 6.78 | 6.78 | 6.99 | 5.24 | – | – | No effect | – | – | –
